The source of these data is patent US7855292B2, “Sulfonamide compounds” (Janssen Pharmaceutica NV, priority 2004, dated 2010).

Test [1] concerns the target T1, CCK-1 receptor (Homo sapiens, UniProt P32238).
T1 construct: expressed in transfected cells; host or cells: CHO-K1
T1 sequence (P32238 1-428): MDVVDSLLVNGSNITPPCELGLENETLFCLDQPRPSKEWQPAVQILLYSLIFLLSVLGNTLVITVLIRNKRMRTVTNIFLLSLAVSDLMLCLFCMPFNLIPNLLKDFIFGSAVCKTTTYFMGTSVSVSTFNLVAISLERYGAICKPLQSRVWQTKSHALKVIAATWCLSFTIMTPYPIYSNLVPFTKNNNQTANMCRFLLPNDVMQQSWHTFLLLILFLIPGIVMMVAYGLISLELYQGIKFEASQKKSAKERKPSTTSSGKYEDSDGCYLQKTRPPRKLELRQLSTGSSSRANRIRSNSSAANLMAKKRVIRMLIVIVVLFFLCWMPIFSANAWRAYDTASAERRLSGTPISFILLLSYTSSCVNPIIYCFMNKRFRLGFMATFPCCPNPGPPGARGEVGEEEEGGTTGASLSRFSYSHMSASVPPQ
Kind of test: CCK1 binding assay ([125I]-BH-CCK-8S displacement, CHO-K1 membranes). As to conditions: membranes of CHO-K1 cells stably transfected with the CCK-1 receptor, 20 pM [125I]-BH-CCK-8S, 0.3 μM PD-134,308 present, 60 min at 21±3° C.; for Ki: read-out: CCK1 pKi (converted). The essentials: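 Membranes from CHO-K1 cells stably expressing CCK-1 incubated 1 h at 21±3° C with 20 pM [125I]-BH-CCK-8S in HEPES buffer pH 7.2 containing 0.3 μM PD-134,308 to block CCK-2. Bound radioactivity read by gamma counting after filtration. pKi derived via Cheng-Prusoff, with specific binding defined using 2-NAP.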

The target in test [2] is T2, CCK2 receptor (Homo sapiens, UniProt P32239).
T2 construct: analyzed for ZFP expression as well as CCK2R induction upon addition of doxycycline to the culture medium; endogenous in cells
T2 sequence (P32239 1-447): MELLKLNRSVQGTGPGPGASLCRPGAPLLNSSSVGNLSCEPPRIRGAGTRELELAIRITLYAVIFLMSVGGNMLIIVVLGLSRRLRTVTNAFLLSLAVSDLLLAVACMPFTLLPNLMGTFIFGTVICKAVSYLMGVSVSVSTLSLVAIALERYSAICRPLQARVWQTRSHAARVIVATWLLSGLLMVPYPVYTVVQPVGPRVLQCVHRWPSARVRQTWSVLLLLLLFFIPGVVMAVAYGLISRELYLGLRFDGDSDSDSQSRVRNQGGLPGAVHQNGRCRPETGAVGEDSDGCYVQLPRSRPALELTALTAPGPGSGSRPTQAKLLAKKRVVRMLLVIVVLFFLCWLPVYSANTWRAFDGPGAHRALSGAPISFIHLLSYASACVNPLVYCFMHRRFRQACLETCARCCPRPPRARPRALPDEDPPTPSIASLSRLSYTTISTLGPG
Kind of test: CCK2 binding assay ([125I]-BH-CCK-8S displacement, HEKZFP membranes). The settings on record: membranes of doxycycline-induced HEKZFP cells, 20 pM [125I]-BH-CCK-8S, 60 min at 21±3° C.; for Ki: read-out: CCK2 pKi (converted).

Turning to `O=C(N[C@@H](Cc1ccc(Cl)c(Cl)c1)C(=O)N1CCCCC1)c1ccc(Cl)cc1NS(=O)(=O)c1cccc2nsnc12` [Example 140, (S)-2-(Benzo[1,2,5]thiadiazole-4-sulfonylamino)-4-chloro-N-[1-(3,4-dichloro-benzyl)-2-oxo-2-piperidin-1-yl-ethyl]-benzamide], the Ki in test [1] is 126 nM; in test [2] it was 316 nM.
The like results for `CN(CCc1ccccc1)C(=O)c1ccc(Br)cc1NS(=O)(=O)c1cccc2nsnc12` [Example 20, 2-(Benzo[1,2,5]thiadiazole-4-sulfonylamino)-4-bromo-N-methyl-N-phenethyl-benzamide] were, in that order, 2000 nM and 100 nM.
Consider `O=C(N[C@@H](Cc1ccc(Cl)c(Br)c1)C(=O)O)c1ccc(Br)cc1NS(=O)(=O)c1cccc2nsnc12` [Example 161, (S)-2-[2-(Benzo[1,2,5]thiadiazole-4-sulfonylamino)-4-bromo-benzoylamino]-3-(3-bromo-4-chloro-phenyl)-propionic acid], for which the “CCK1 pKi” value in test [1] stood at 6.9. Besides, the “CCK2 pKi” value in test [2] worked out at 7.9.
On to `CC(CNC(=O)c1ccc(I)cc1NS(=O)(=O)c1c(F)cccc1F)c1ccc(Cl)c(Cl)c1` (stereo not shown) [Example 42, N-[2-(3,4-Dichloro-phenyl)-propyl]-2-(2,6-difluoro-benzenesulfonylamino)-4-iodo-benzamide], for which the Ki in test [1] is 31.6 nM; in test [2], 3160 nM.
`COC(=O)[C@H](Cc1ccc(Cl)c(Cl)c1)NC(=O)c1ccc(I)cc1NS(=O)(=O)c1cccc2nsnc12` [Example 154, (S)-2-[2-(Benzo[1,2,5]thiadiazole-4-sulfonylamino)-4-iodo-benzoylamino]-3-(3,4-dichloro-phenyl)-propionic acid methyl ester]: the values for the Ki in test [1] and in test [2] were 158 nM and 251 nM, respectively.
In the case of `O=C(NCCc1ccc(Cl)cc1Cl)c1ccccc1NS(=O)(=O)c1cccc2nsnc12` [Example 75, 2-(Benzo[1,2,5]thiadiazole-4-sulfonylamino)-N-[2-(2,4-dichloro-phenyl)-ethyl]-benzamide], the Ki in test [1] was 1000 nM; in test [2] it was 3980 nM.
Regarding `CC(CNC(=O)c1ccc(Cl)cc1NS(=O)(=O)c1c(F)cccc1F)c1ccc(C(F)(F)F)cc1` (stereo not shown) [Example 45, 4-Chloro-2-(2,6-difluoro-benzenesulfonylamino)-N-[2-(4-trifluoromethyl-phenyl)-propyl]-benzamide], the Ki in test [1] was 251 nM; in test [2], 1580 nM.
Taken in the same sequence, the figures for `O=C(N[C@H](Cc1ccccc1)C(=O)O)c1ccc(I)cc1NS(=O)(=O)c1c(F)cccc1F` [Example 17, (R)-2-[2-(2,6-Difluoro-benzenesulfonylamino)-4-iodo-benzoylamino]-3-phenyl-propionic acid] were 79.4 nM and 2510 nM.
As for `O=C(N[C@@H](Cc1ccc(F)c(Br)c1)C(=O)O)c1ccc(Cl)cc1NS(=O)(=O)c1cccc2nsnc12` [Example 156, (S)-2-[2-(Benzo[1,2,5]thiadiazole-4-sulfonylamino)-4-chloro-benzoylamino]-3-(3-bromo-4-fluoro-phenyl)-propionic acid], in test [1], the “CCK1 pKi” value came to 6.6. In test [2], the “CCK2 pKi” value turned out to be 8.0.
On to `O=C(N[C@@H](Cc1ccc(F)c(Br)c1)C(=O)O)c1ccc(Br)cc1NS(=O)(=O)c1cccc2nccnc12` [Example 158, (S)-3-(3-Bromo-4-fluoro-phenyl)-2-[4-bromo-2-(quinoxaline-5-sulfonylamino)-benzoylamino]-propionic acid], for which the “CCK1 pKi” value in test [1] was determined as 6.5. Further, the “CCK2 pKi” value in test [2] came to 8.3.
As for `C[C@H](c1ccc(Cl)c(Cl)c1)[C@H](NC(=O)c1ccc(Cl)cc1NS(=O)(=O)c1cccc2nsnc12)C(=O)O` [Example 56, (2S,3R)-2-[2-(Benzo[1,2,5]thiadiazole-4-sulfonylamino)-4-chloro-benzoylamino]-3-(3,4-dichloro-phenyl)-butyric acid], the “CCK1 pKi” value in test [1] turned out to be 6.3. In addition, the “CCK2 pKi” value in test [2] is reported as 6.8.
With `O=C(N[C@@H](Cc1ccc(F)c(Br)c1)C(=O)O)c1ccc(Cl)cc1NS(=O)(=O)c1cccc2nccnc12` [Example 159, (S)-3-(3-Bromo-4-fluoro-phenyl)-2-[4-chloro-2-(quinoxaline-5-sulfonylamino)-benzoylamino]-propionic acid], the “CCK1 pKi” value in test [1] is 6.4. Moreover, the “CCK2 pKi” value in test [2] was determined as 8.0.
In the case of `C[C@@H](CNC(=O)c1ccc(Br)cc1NS(=O)(=O)c1c(F)cccc1F)c1ccccc1` [Example 38, (R)-4-Bromo-2-(2,6-difluoro-benzenesulfonylamino)-N-(2-phenyl-propyl)-benzamide], the Ki in test [1] is 316 nM; in test [2], 2000 nM.
`O=C(N[C@@H](Cc1cccc(I)c1)C(=O)O)c1ccc(I)cc1NS(=O)(=O)c1cccc2nsnc12` [Example 135, (S)-2-[2-(Benzo[1,2,5]thiadiazole-4-sulfonylamino)-4-iodo-benzoylamino]-3-(3-iodo-phenyl)-propionic acid]: the Ki in test [1] was 501 nM; in test [2] it was 7.94 nM.
Take `O=C(N[C@H](Cc1ccc(Cl)cc1)C(=O)O)c1ccc(I)cc1NS(=O)(=O)c1cccc2nccnc12` [Example 15, (R)-3-(4-Chloro-phenyl)-2-[4-iodo-2-(quinoxaline-5-sulfonylamino)-benzoylamino]-propionic acid]: the Ki in test [1] was 39.8 nM; in test [2], 200 nM.
The like results for `COC(=O)C[C@H](Cc1ccc(Cl)cc1)NC(=O)c1ccc(Cl)cc1NS(=O)(=O)c1cccc2nccnc12` [Example 88, (S)-4-(4-Chloro-phenyl)-3-[4-chloro-2-(quinoxaline-5-sulfonylamino)-benzoylamino]-butyric acid methyl ester] were, in that order, 6310 nM and 631 nM.
Regarding `COC(=O)C(NC(=O)c1ccc(Cl)cc1NS(=O)(=O)c1cccc2nccnc12)C(=O)c1ccc(Cl)c(Cl)c1` (racemic) [Example 18, (±)-2-[4-Chloro-2-(quinoxaline-5-sulfonylamino)-benzoylamino]-3-(3,4-dichloro-phenyl)-3-oxo-propionic acid methyl ester], the values for the Ki in test [1] and in test [2] were 316 nM and 1580 nM, respectively.
As to `O=C(NC(CO)Cc1ccc(Cl)cc1)c1ccc(Cl)cc1NS(=O)(=O)c1cccc2nsnc12` (racemic) [Example 52, (±)-2-(Benzo[1,2,5]thiadiazole-4-sulfonylamino)-4-chloro-N-[2-(4-chloro-phenyl)-1-hydroxymethyl-ethyl]-benzamide], the Ki in test [1] was 501 nM; in test [2], 100 nM.
Taken in the same sequence, the figures for `O=C(N[C@H](Cc1ccc(Cl)cc1Cl)C(=O)O)c1ccc(Cl)cc1NS(=O)(=O)c1c(F)cccc1F` [Example 46, 2-[4-Chloro-2-(2,6-difluoro-benzenesulfonylamino)-benzoylamino]-3-(2,4-dichloro-phenyl)-propionic acid] were 1580 nM and 63.1 nM.
Taken in the same sequence, the figures for `CC(CNC(=O)c1cc(Cl)c(Cl)cc1NS(=O)(=O)c1cccc2nsnc12)c1ccc(Cl)c(Cl)c1` (racemic) [Example 58, (±)-2-(Benzo[1,2,5]thiadiazole-4-sulfonylamino)-4,5-dichloro-N-[2-(3,4-dichloro-phenyl)-propyl]-benzamide] were 31.6 nM and 501 nM.
